{"source": "patent US20250082674A1", "about": "“METHODS OF TREATING COPPER METABOLISM-ASSOCIATED DISEASES OR DISORDERS” (priority 2021, published 2025)", "tested_on": "patients with Wilson disease (WD)", "test": "Study 301: Unified Wilson Disease Rating Scale (UWDRS Parts II, III)", "type": "in vivo, human", "experimental": "The UWDRS scoring system was developed specifically for the motor and movement disorders associated with chronic copper neurotoxicity in WD. Some individual items/subscales of the UWDRS Part III (arising from a chair, gait, handwriting, and speech) in addition to the UWDRS Parts I, II, and III overall, were assessed to further define the range of burdensome signs and symptoms of WD, so as to further understand the assessment of treatment effects on patients with WD. The UWDRS scores for consciousness (Part I) and abnormal neurologic examination findings (Part III) will be determined by a trained neurologist rater who is blinded to study treatment randomization. These scores were used to provide a rigorous dataset for evaluating changes from baseline.\nUnified Wilson Disease Rating Scale (Parts I, II, and III): The UWDRS is a clinical rating scale designed to evaluate the neurological manifestations of WD that generally can be divided into 3 movement disorder syndromes: dystonic, ataxic, and Parkinsonian syndrome. The UWDRS comprises 3 parts: UWDRS Part I (level of consciousness, item 1), UWDRS Part II (a patient-reported review of daily activity items [disability], items 2 to 11), and UWDRS Part III (a detailed neurological examination, items 12 to 34).\nThe UWDRS Part I and Part III were assessed by a neurologist who is blinded to the treatment randomization, while UWDRS Part II may be reported to a non-blinded member of the study team by the patient, family member, or caregiver. The UWDRS has not been formally evaluated in adolescents. However, the components of Part I (level of consciousness), Part II (patient or caregiver-reported disability) and Part III (neurologic examination findings) were not fundamentally different between adults and adolescents. Patients aged 12 years and older were expected to be able to comply with UWDRS assessments.\nThere were trends toward stability/improvement for both treatment groups. […] As approximately 50% of patients had baseline UWDRS scores of 0, and those patients that did have scores greater than zero were relatively low in the respective UWDRS Part II (score range: 0-40) and UWDRS Part III (score range: 0-175) scale range, there was little room for improvement.", "key": {"[1]": {"details": "Study 301, patients symptomatic at baseline, Cohort 1"}, "[2]": {"details": "Study 301, patients symptomatic at baseline, Cohort 2"}, "[3]": {"details": "Study 301, patients symptomatic at baseline, Overall"}}, "data": [{"substance": "Bis-choline tetrathiomolybdate [BC-TTM]", "values": [{"measurement": "UWDRS Part II (0-40), Change from Baseline at 48 weeks, Mean", "setting": "Study 301, Full Analysis Set", "value": "−0.6"}, {"measurement": "UWDRS Part II (0-40), Difference at 48 weeks, LSM (SE), BC-TTM vs SoC", "setting": "Study 301, Full Analysis Set", "value": "0.4 (0.51)"}, {"measurement": "UWDRS Part III (0-175), Change from Baseline at 48 weeks, Mean", "setting": "Study 301, Full Analysis Set", "value": "−2.20"}, {"measurement": "UWDRS Part III (0-175), Difference at 48 weeks, LSM (SE), BC-TTM vs SoC", "setting": "Study 301, Full Analysis Set", "value": "−0.09 (1.322)"}, {"measurement": "UWDRS Part III functional subscale (0-10), Change from Baseline at 48 weeks, Mean", "setting": "Study 301, Full Analysis Set", "value": "−0.147"}, {"measurement": "UWDRS Part III functional subscale (0-10), Difference at 48 weeks, LSM (SE), BC-TTM vs SoC", "setting": "Study 301, Full Analysis Set", "value": "−0.067 (0.1344)"}, {"measurement": "UWDRS Part III-arising from chair (0-4), Change from Baseline at 48 weeks, Mean", "setting": "Study 301, Full Analysis Set", "value": 0.0}, {"measurement": "UWDRS Part III-arising from chair (0-4), Difference at 48 weeks, LSM (SE), BC-TTM vs SoC", "setting": "Study 301, Full Analysis Set", "value": "0.0 (0.06)"}, {"measurement": "UWDRS Part III-gait (0-10), Change from Baseline at 48 weeks, Mean", "setting": "Study 301, Full Analysis Set", "value": "−0.06"}, {"measurement": "UWDRS Part III-gait (0-10), Difference at 48 weeks, LSM (SE), BC-TTM vs SoC", "setting": "Study 301, Full Analysis Set", "value": "−0.15 (0.192)"}, {"measurement": "UWDRS Part III-handwriting (0-4), Change from Baseline at 48 weeks, Mean", "setting": "Study 301, Full Analysis Set", "value": "−0.1"}, {"measurement": "UWDRS Part III-handwriting (0-4), Difference at 48 weeks, LSM (SE), BC-TTM vs SoC", "setting": "Study 301, Full Analysis Set", "value": "−0.1 (0.09)"}, {"measurement": "UWDRS Part III-speech (0-4), Change from Baseline at 48 weeks, Mean", "setting": "Study 301, Full Analysis Set", "value": "−0.1"}, {"measurement": "UWDRS Part III-speech (0-4), Difference at 48 weeks, LSM (SE), BC-TTM vs SoC", "setting": "Study 301, Full Analysis Set", "value": "0.0 (0.07)"}, {"measurement": "key secondary efficacy endpoints, BC-TTM versus SoC", "setting": "Study 301, after adjusting for multiplicity (hierarchical testing)", "value": "none of the key secondary efficacy endpoints were statistically significantly different"}, {"measurement": "UWDRS Part III, Week 48 Change from Baseline, LSM Diff, BC-TTM vs SoC", "setting": "[1]", "value": "−0.79"}, {"measurement": "UWDRS Part III, Week 48 Change from Baseline, Mean", "setting": "[1]", "value": "−2.86"}, {"measurement": "UWDRS Part III, Week 48 Change from Baseline, Median", "setting": "[1]", "value": "−2.00"}, {"measurement": "UWDRS Part III, Week 48 Change from Baseline, LSM", "setting": "Study 301, patients symptomatic at baseline, Cohort 1, MMRM", "value": "−2.68"}, {"measurement": "UWDRS Part III, Week 48 Change from Baseline, LSM Diff (SE), BC-TTM vs SoC", "setting": "[2]", "value": "0.05 (5.041)"}, {"measurement": "UWDRS Part III, Week 48 Change from Baseline, Mean", "setting": "[2]", "value": "−3.10"}, {"measurement": "UWDRS Part III, Week 48 Change from Baseline, Median", "setting": "[2]", "value": "−3.00"}, {"measurement": "UWDRS Part III, Week 48 Change from Baseline, LSM", "setting": "Study 301, patients symptomatic at baseline, Cohort 2, MMRM", "value": 1.43}, {"measurement": "UWDRS Part III, Week 48 Change from Baseline, LSM Diff, BC-TTM vs SoC", "setting": "[3]", "value": "−0.33"}, {"measurement": "UWDRS Part III, Week 48 Change from Baseline, Mean", "setting": "[3]", "value": "−2.91"}, {"measurement": "UWDRS Part III, Week 48 Change from Baseline, Median", "setting": "[3]", "value": "−2.00"}, {"measurement": "UWDRS Part III, Week 48 Change from Baseline, LSM", "setting": "Study 301, patients symptomatic at baseline, Overall, MMRM", "value": "−1.54"}]}]}
